Assay results reported in ChEMBL document CHEMBL5512665, “A CARM1 Inhibitor Potently Suppresses Breast Cancer Both In Vitro and In Vivo” (J Med Chem, 2024).
The source made the active and inactive calls. No cut-off for these calls is given here.

Columns and labels:
[1] = system: MCF7; experiment: Antitumor activity against human MCF7 cells xenografted in BALB/C mouse assessed as reduction of tumor size at 25 mg/kg,ip administrated every other day for 29 days; format: functional, organism-based; conditions: time 29.0 day
[2] = system: MCF7; experiment: Antitumor activity against human MCF7 cells xenografted in BALB/C mouse assessed as downregulation of C-Myc gene expression at 50 mg/kg,ip administrated every other day for 29 days by RT-qPCR analysis; format: functional, organism-based; conditions: time 29.0 day
[3] = system: MCF7; experiment: Antitumor activity against human MCF7 cells xenografted in BALB/C mouse assessed as downregulation of NRIP1 gene expression at 25 mg/kg,ip administrated every other day for 29 days by RT-qPCR analysis; format: functional, organism-based; conditions: time 29.0 day
[4] = system: MCF7; experiment: Antitumor activity against human MCF7 cells xenografted in BALB/C mouse assessed as downregulation of NRIP1 gene expression at 50 mg/kg,ip administrated every other day for 29 days by RT-qPCR analysis; format: functional, organism-based; conditions: time 29.0 day
[5] = system: MCF7; experiment: Antitumor activity against human MCF7 cells xenografted in BALB/C mouse assessed as downregulation of FOXC1 gene expression at 50 mg/kg,ip administrated every other day for 29 days by RT-qPCR analysis; format: functional, organism-based; conditions: time 29.0 day
[6] = system: MCF7; experiment: Antitumor activity against human MCF7 cells xenografted in BALB/C mouse assessed as upregulation of IFNalpha gene expression at 50 mg/kg,ip administrated every other day for 29 days by RT-qPCR analysis; format: functional, organism-based; conditions: time 29.0 day
[7] = system: MCF7; experiment: Antitumor activity against human MCF7 cells xenografted in BALB/C mouse assessed as upregulation of ISG15 gene expression at 50 mg/kg,ip administrated every other day for 29 days by RT-qPCR analysis; format: functional, organism-based; conditions: time 29.0 day
[8] = system: MCF7; experiment: Antitumor activity against human MCF7 cells xenografted in BALB/C mouse assessed as upregulation of IFIT1 gene expression at 50 mg/kg,ip administrated every other day for 29 days by RT-qPCR analysis; format: functional, organism-based; conditions: time 29.0 day
[9] = system: HCC1937; experiment: Antiproliferative activity against human HCC1937 cells assessed as reduction in cell growth incubated for 7 days by celltiter 96 aqueous one solution cell proliferation assay; conditions: HCC1937, 168 h
[10] = system: MDA-MB-231; experiment: Antitumor activity against human MDA-MB-231 cells xenografted in BALB/C mouse assessed as inhibition of tumor growth at 50 mg/kg,ip administrated daily for 11 days; format: functional, organism-based; conditions: time 11.0 day
[11] = system: MDA-MB-231; experiment: Antitumor activity against human MDA-MB-231 cells xenografted in BALB/C mouse assessed as reduction of tumor size at 50 mg/kg,ip administrated daily for 11 days; format: functional, organism-based; conditions: time 11.0 day
[12] = Toxicity in BALB/C mouse xenografted with human MDA-MB-231 cells assessed as change in spleen morphology at 50 mg/kg,ip administrated daily for 11 days; format: organism-based; conditions: in vivo, 264 h, time 11 day
[13] = Toxicity in BALB/C mouse xenografted with human MDA-MB-231 cells assessed as change in kidney morphology at 50 mg/kg,ip administrated daily for 11 days; format: organism-based; conditions: in vivo, 264 h, time 11 day
[14] = Toxicity in BALB/C mouse implanted with mouse 4T1 cells assessed as change in heart morphology at 50 mg/kg,ip administrated daily for 14 days; format: organism-based; conditions: in vivo, 336 h, time 14 day
[15] = Toxicity in BALB/C mouse implanted with mouse 4T1 cells assessed as change in liver morphology at 25 mg/kg,ip administrated daily for 14 days; format: organism-based; conditions: in vivo, 336 h, time 14 day
[16] = system: 4T1; experiment: Antitumor activity against mouse 4T1 cells implanted in BALB/C mouse assessed as downregulation of GREB1 gene expression at 25 mg/kg,ip administrated daily for 14 days by RT-qPCR analysis; format: functional, organism-based; conditions: time 14.0 day
[17] = system: 4T1; experiment: Antitumor activity against mouse 4T1 cells implanted in BALB/C mouse assessed as downregulation of NRIP1 gene expression at 25 mg/kg,ip administrated daily for 14 days by RT-qPCR analysis; format: functional, organism-based; conditions: time 14.0 day
[18] = system: 4T1; experiment: Antitumor activity against mouse 4T1 cells implanted in BALB/C mouse assessed as downregulation of PGR gene expression at 25 mg/kg,ip administrated daily for 14 days by RT-qPCR analysis; format: functional, organism-based; conditions: time 14.0 day
[19] = system: 4T1; experiment: Antitumor activity against mouse 4T1 cells implanted in BALB/C mouse assessed as upregulation of IFNalpha gene expression at 25 mg/kg,ip administrated daily for 14 days by RT-qPCR analysis; format: functional, organism-based; conditions: time 14.0 day
[20] = system: 4T1; experiment: Antitumor activity against mouse 4T1 cells implanted in BALB/C mouse assessed as upregulation of ISG15 gene expression at 50 mg/kg,ip administrated daily for 14 days by RT-qPCR analysis; format: functional, organism-based; conditions: time 14.0 day
[21] = system: 4T1; experiment: Antitumor activity against mouse 4T1 cells implanted in BALB/C mouse assessed as upregulation of CCL5 gene expression at 25 mg/kg,ip administrated daily for 14 days by RT-qPCR analysis; format: functional, organism-based; conditions: time 14.0 day
[22] = system: 4T1; experiment: Antitumor activity against mouse 4T1 cells implanted in BALB/C mouse assessed as upregulation of DDX58 gene expression at 25 mg/kg,ip administrated daily for 14 days by RT-qPCR analysis; format: functional, organism-based; conditions: time 14.0 day
[23] = system: 4T1; experiment: Antitumor activity against mouse 4T1 cells implanted in BALB/C mouse assessed as upregulation of DDX58 gene expression at 50 mg/kg,ip administrated daily for 14 days by RT-qPCR analysis; format: functional, organism-based; conditions: time 14.0 day
[24] = system: 4T1; experiment: Antitumor activity against mouse 4T1 cells implanted in BALB/C mouse assessed as upregulation of CD8A expression at 25 mg/kg,ip administrated daily for 14 days by immunohistochemical staining based analysis; format: functional, organism-based; conditions: time 14.0 day
[25] = system: MCF7; experiment: Synergistic antiproliferative activity against human MCF7 cells assessed as downregulation of C-Myc gene expression at 2.5 uM incubated for 6 hrs in presence of fulvestrant by RT-qPCR analysis; format: functional, cell-based
[26] = system: MCF7; experiment: Synergistic antiproliferative activity against human MCF7 cells assessed as downregulation of TFF1 gene expression at 2.5 uM incubated for 6 hrs in presence of fulvestrant by RT-qPCR analysis; format: functional, cell-based
[27] = system: MCF7; experiment: Synergistic antiproliferative activity against human MCF7 cells assessed as downregulation of GREB1 gene expression at 2.5 uM incubated for 6 hrs in presence of tamoxifen by RT-qPCR analysis; format: functional, cell-based
[28] = system: 4T1; experiment: Potentiation of etoposide induced antiproliferative activity against mouse 4T1 cells assessed as upregulation of CCL5 gene expression at 2.5 uM in presence of etoposide by RT-qPCR analysis; format: functional, cell-based
[29] = Toxicity in BALB/C mouse implanted with mouse 4T1 cells assessed as change in body weight at 25 mg/kg,ip administrated daily for 12 days in presence of 8 mg/kg etoposide administration; format: organism-based; conditions: in vivo, 288 h, time 12 day
[30] = system: 4T1; experiment: Potentiation of etoposide induced antitumor activity against mouse 4T1 cells implanted in BALB/C mouse assessed as upregulation of DDX58 gene expression at 25 mg/kg,ip administrated daily for 12 days in presence of 8 mg/kg etoposide administration by RT-qPCR analysis; format: functional, organism-based; conditions: time 12.0 day
[31] = system: 4T1; experiment: (§1) Potentiation of etoposide induced antitumor activity against mouse 4T1 cells implanted in BALB/C mouse assessed as upregulation of CD8A expression at 25 mg/kg,ip administrated daily for 12 days in presence of 8 mg/kg etoposide administration by immunohistochemical staining based analysis; format: functional, organism-based; conditions: time 12.0 day
[32] = system: 4T1; experiment: as §1, with “increase in infiltration” for “upregulation”, “CD8 positive T cells” for “CD8A expression”; format: functional, organism-based; conditions: time 12.0 day

- EC50 [9]: 1970 nM
Structure (SMILES): Cc1ccc(-c2nc(N3CCN(CCN(C)C)CC3)ncc2-c2ccoc2)cc1.Cl.Cl
- Activity [1]: Active
- Activity [2]: Active
- Activity [3]: Active
- Activity [4]: Active
- Activity [5]: Active
- Activity [6]: Active
- Activity [7]: Active
- Activity [8]: Active
- Activity [10]: Active
- Activity [11]: Active
- Activity [12]: Non-Toxic
- Activity [13]: Non-Toxic
- Activity [14]: Non-Toxic
- Activity [15]: Non-Toxic
- Activity [16]: Active
- Activity [17]: Active
- Activity [18]: Active
- Activity [19]: Active
- Activity [20]: Active
- Activity [21]: Active
- Activity [22]: Active
- Activity [23]: Active
- Activity [24]: Active
- Activity [25]: Active
- Activity [26]: Active
- Activity [27]: Active
- Activity [28]: Active
- Activity [29]: Non-Toxic
- Activity [30]: Active
- Activity [31]: Active
- Activity [32]: Active
